The values that follow come from ChEMBL document CHEMBL1143770, “Mono, di and tri-mannopyranosyl phosphates as mannose-1-phosphate prodrugs for potential CDG-Ia therapy” (Bioorg Med Chem Lett, 2007).

A short description of data set [1]: Cytotoxicity in human lymphoblasts assessed as release of cellular lactate dehydrogenase at 300 uM after 16 hrs relative to methanol. Format: cell-based. Conditions: lymphoblast.
The nature of data set [2]: Inhibition 2[3H]mannose incorporation into glycoconjugates in lymphoblasts isolated from congenital disorders of glycosylation-Ia patient at 300 uM. Conditions: Homo sapiens, Lymphoblast. Format: functional.

In general, inhibition refers to the percentage by which the read-out fell short of the control. Read a low inhibition as a response near the control. For the compound `CC(=O)OC[C@H]1O[C@H](OP(=O)(Oc2cccc3ccccc23)O[C@H]2O[C@H](COC(C)=O)[C@@H](OC(C)=O)[C@H](OC(C)=O)[C@@H]2OC(C)=O)[C@@H](OC(C)=O)[C@@H](OC(C)=O)[C@@H]1OC(C)=O` (single isomer, unassigned), the Activity result in data set [1] is reported as “<= 25%”. In data set [2], this compound returned an inhibition at 300 µM of 56%.

With `CCCC(=O)OC[C@H]1O[C@H](OP(=O)(OCc2ccccc2)O[C@H]2O[C@H](COC(=O)CCC)[C@@H](OC(=O)CCC)[C@H](OC(=O)CCC)[C@@H]2OC(=O)CCC)[C@@H](OC(=O)CCC)[C@@H](OC(=O)CCC)[C@@H]1OC(=O)CCC` (single isomer, unassigned), the inhibition at 300 µM in data set [2] was determined as 71%.

Compound `CC(=O)OC[C@H]1O[C@H](OP(=O)(Oc2ccccc2)O[C@H]2O[C@H](COC(C)=O)[C@@H](OC(C)=O)[C@H](OC(C)=O)[C@@H]2OC(C)=O)[C@@H](OC(C)=O)[C@@H](OC(C)=O)[C@@H]1OC(C)=O` (single isomer, unassigned) showed an inhibition at 300 µM in data set [2] of 26%.

As to `CC(C)C(=O)OC[C@H]1O[C@H](OP(=O)(Oc2ccccc2)O[C@H]2O[C@H](COC(=O)C(C)C)[C@@H](OC(=O)C(C)C)[C@H](OC(=O)C(C)C)[C@@H]2OC(=O)C(C)C)[C@@H](OC(=O)C(C)C)[C@@H](OC(=O)C(C)C)[C@@H]1OC(=O)C(C)C` (single isomer, unassigned), in data set [2], at 300 µM the inhibition was 78%.
